Measurements as given in patent publication US8163700B2, “Inhibitors of myelin-associated glycoprotein (MAG) activity for regulating neural growth and regeneration” (Research Foundation of City University of New York, priority 2002, dated 2012).
Entries after “also recorded” stand apart in the source; their conditions may differ.

Tests used:
[1] = test system: wild-type MAG-expressing cells; test: Neurite outgrowth on MAG-expressing cells in the presence of MAG, Nogo and OMgp peptides (Example 6); type: cell-based; details: tested as described in Example 5; example written in present tense
From the text: Peptides corresponding to amino acid residues […] of MAG (MAG(343-371)), amino acid residues 363-397 (MAG(363-397)), amino acid residues 394-428 (MAG(394-428)), amino acid residues 422-451 (MAG(422-451)), amino acid residues 442-471 (MAG(442-471)), and amino acid residues 461-498 (MAG(461-498)) were synthesized. Peptides were obtained from SynPep Corp. (Dublin, Calif.). MAG(343-371), MAG(363-397) and MAG(394-428) correspond to amino acid residues from the Ig4 domain of MAG. MAG(422-451), MAG(442-471) and MAG(461-498) corresponds to amino acid residues from the Ig5 domain of MAG. […] Results are shown in FIG. 4 (and are represented as number of neurons with processes longer than 2-times the cell diameter). […] Results are shown in FIG. 5 (and are represented as average neurite length for 180-200 neurons).
Peptides corresponding to MAG amino acid residues 437-441 (M437), 446-455 (M446), 450-455 (M450), 466-471 (M466); and 472-477 (M472) are constructed and tested in neurite outgrowth assays as described in Example 5. (See peptides in FIG. 18).
Peptides corresponding to Nogo-66 amino acid residues 13-17 (N13), 22-31(N22-1), 22-34 (N22-2), 26-31 (N26-1); 26-34 (N26-2); 9-33 (N-9-1); 9-34 (N-9-2); 38-62 (N38); 42-47 (N42); and 48-53 (N48) are also constructed and tested in neurite outgrowth assays as described in Example 5.
Peptides corresponding to OMgp amino acid residues 206-210 (O206), 215-224 (O215), 219-224 (O219), 202-226 (O202); 231-255 (O231), 235-240 (O235) 241-246 (O241) are constructed and tested in neurite outgrowth assays as described in Example 5.

cerebellar neurons = test: Neurite outgrowth on L1-Fc substrate in the presence of soluble MAG-Fc chimeras (FIG. 3); type: cell-based; details: soluble protein 25 μg/ml, 18 hours, compared to control chimera
Experimental: FIG. 3 Inhibition of neurite outgrowth from cerebellar neurons by MAG-Fc Derivatives Cerebellar neurons were isolated (Example 1) and plated onto a growth promoting substrate of L1 protein (Example 4). A control MUC-Fc fusion (clear bar), wild-type MAG-Fc (striped bar) and MAG-Fc derivatives having point mutations in MAG Ig-like domains 4 or 5 (grey bars) were constructed (Example 4) and added in soluble form to neurons (25 μg/ml). After 18 hours, cultures were fixed and stained for GAP-43 antigen. Neurite length was measured and the average length was calculated for 180-200 neurons (+/−SEM).
Individual wells of an eight-chamber tissue culture plastic slide (Lab-Tek, Nuc. Inc.) were incubated with 0.3 nil of 16.6 μg/ml poly-1-lysine in sterile water for at least one hour under sterile conditions. Each well was washed twice with 400 μl of a 0.1M sodium bicarbonate solution, pH 9.6, and then received 0.3 ml of 0.1M sodium bicarbonate solution, pH 9.6, containing 15 μg/ml goat anti-human IgG (Fc-specific) monoclonal antibody (Sigma). The wells were incubated for 2 hours (h) at 37° C., and washed three times with 0.4 ml of ice-cold DMEM. Each well then received 0.3 nil of DMEM containing 40 μg/ml of L1-Fc and was incubated for 2-4 h at 37° C. The welts were washed twice DMEM.
Cerebellar neurons (post-natal days 2-7) were dissociated by trypsinization as described in Example 1, except that the dissociated neurons were resuspended in 5 ml of SATO medium containing 2% dialyzed FBS. To an individual well coated with a monolayer of L1-Fc as described above, 5.0×10^4 cerebellar neurons were added, followed by addition of one of the mutant MAG-Fc or MUC18-Fc chimeric soluble protein described above at a concentration of 25 μg/ml. Neurons were cultured for 18 hours at 37° C., and then fixed and stained for GAP43 essentially as described in Example 2. Neurite length was measured for 180-200 neurons.

Molecule | effect on the ability of wild-type MAG-expressing cells to inhibit neurite outgrowth [1] | inhibition of neurite outgrowth (in words) (cerebellar neurons)
M437: peptide of MAG amino acid residues 437-441 (SEQ ID NO: 17) (NPEPS) | reduce the ability of the wild-type MAG-expressing cells to inhibit neurite outgrowth | 
M446: peptide of MAG amino acid residues 446-455 (SEQ ID NO: 18) (LPSRNVTVNE) | reduce the ability of the wild-type MAG-expressing cells to inhibit neurite outgrowth | 
M450: peptide of MAG amino acid residues 450-455 (SEQ ID NO: 19) (NVTVNE) | reduce the ability of the wild-type MAG-expressing cells to inhibit neurite outgrowth | 
M466: peptide of MAG amino acid residues 466-471 (SEQ ID NO: 21) (SGLLLT) | reduce the ability of the wild-type MAG-expressing cells to inhibit neurite outgrowth | 
M472: peptide of MAG amino acid residues 472-477 (SEQ ID NO: 22) (SILTLR) | reduce the ability of the wild-type MAG-expressing cells to inhibit neurite outgrowth | 
N38: peptide of Nogo-66 amino acid residues 38-62 (SEQ ID NO: 32) (SNSALGHVNSTIKELRRLFLVDDLV) | reduce the ability of wild-type MAG-expressing cells to inhibit neurite outgrowth; also recorded: reduce the ability of the wild-type MAG-expressing cells to inhibit neurite outgrowth | 
N42: peptide of Nogo-66 amino acid residues 42-47 (EEDEDE; Nogo-66; UniProt Q9NQC3 42-47, looked up, fragment) | reduce the ability of wild-type MAG-expressing cells to inhibit neurite outgrowth; also recorded: reduce the ability of the wild-type MAG-expressing cells to inhibit neurite outgrowth | 
N48: peptide of Nogo-66 amino acid residues 48-53 (DLEELE; Nogo-66; UniProt Q9NQC3 48-53, looked up, fragment) | reduce the ability of wild-type MAG-expressing cells to inhibit neurite outgrowth; also recorded: reduce the ability of the wild-type MAG-expressing cells to inhibit neurite outgrowth | 
N-9-1: peptide of Nogo-66 amino acid residues 9-33 (LVSSSDSPPRPQPAFKYQFVREPED; Nogo-66; UniProt Q9NQC3 9-33, looked up, fragment) | reduce the ability of wild-type MAG-expressing cells to inhibit neurite outgrowth; also recorded: reduce the ability of the wild-type MAG-expressing cells to inhibit neurite outgrowth | 
N-9-2: peptide of Nogo-66 amino acid residues 9-34 (LVSSSDSPPRPQPAFKYQFVREPEDE; Nogo-66; UniProt Q9NQC3 9-34, looked up, fragment) | reduce the ability of wild-type MAG-expressing cells to inhibit neurite outgrowth; also recorded: reduce the ability of the wild-type MAG-expressing cells to inhibit neurite outgrowth | 
O202: peptide of OMgp amino acid residues 202-226 (SEQ ID NO: 38) (KFTFIPEQSFDQLLQLQEITLHNNR) | reduce the ability of the wild-type MAG-expressing cells to inhibit neurite outgrowth | 
O206: peptide of OMgp amino acid residues 206-210 (SEQ ID NO: 35) (IPEQS) | reduce the ability of the wild-type MAG-expressing cells to inhibit neurite outgrowth | 
O215: peptide of OMgp amino acid residues 215-224 (SEQ ID NO: 36) (LQLQEITLHN) | reduce the ability of the wild-type MAG-expressing cells to inhibit neurite outgrowth | 
O219: peptide of OMgp amino acid residues 219-224 (SEQ ID NO: 37) (EITLHN) | reduce the ability of the wild-type MAG-expressing cells to inhibit neurite outgrowth | 
O231: peptide of OMgp amino acid residues 231-255 (SEQ ID NO: 39) (HKQNITYLLKWVMETKAHVIGTPCS) | reduce the ability of the wild-type MAG-expressing cells to inhibit neurite outgrowth | 
O235: peptide of OMgp amino acid residues 235-240 (SEQ ID NO: 40) (ITYLLK) | reduce the ability of the wild-type MAG-expressing cells to inhibit neurite outgrowth | 
O241: peptide of OMgp amino acid residues 241-246 (SEQ ID NO: 41) (WVMETK) | reduce the ability of the wild-type MAG-expressing cells to inhibit neurite outgrowth | 
MAG(L346D)-Fc: murine MAG-Fc with point mutation L346D, Ig domain 4 (protein, UniProt P20917 20-516, looked up, variant L346D, extracellular domain Fc fusion) extracellular domain: GHWGAWMPSTISAFEGTCVSIPCRFDFPDELRPAVVHGVWYFNSPYPKNYPPVVFKSRTQVVHESFQGRSRLLGDLGLRNCTLLLSTLSPELGGKYYFRGDLGGYNQYTFSEHSVLDIVNTPNIVVPPEVVAGTEVEVSCMVPDNCPELRPELSWLGHEGLGEPTVLGRLREDEGTWVQVSLLHFVPTREANGHRLGCQAAFPNTTLQFEGYASLDVKYPPVIVEMNSSVEAIEGSHVSLLCGADSNPPPLLTWMRDGMVLREAVAKSLYLDLEEVTPGEDGVYACLAENAYGQDNRTVELSVMYAPWKPTVNGTVVAVEGETVSIDCSTQSNPDPILTIFKEKQILATVIYESQLQLELPAVTPEDDGEYWCVAENQYGQRATAFNLSVEFAPIILLESHCAAARDTVQCLCVVKSNPEPSVAFELPSRNVTVNETEREFVYSERSGLLLTSILTIRGQAQAPPRVICTSRNLYGTQSLELPFQGAHRLMWAKIGP |  | inhibited neurite outgrowth as effectively as MAG-Fc
MAG(E410K)-Fc: murine MAG-Fc with point mutation E410K, Ig domain 4/5 (protein, UniProt P20917 20-516, looked up, variant E410K, extracellular domain Fc fusion) extracellular domain: GHWGAWMPSTISAFEGTCVSIPCRFDFPDELRPAVVHGVWYFNSPYPKNYPPVVFKSRTQVVHESFQGRSRLLGDLGLRNCTLLLSTLSPELGGKYYFRGDLGGYNQYTFSEHSVLDIVNTPNIVVPPEVVAGTEVEVSCMVPDNCPELRPELSWLGHEGLGEPTVLGRLREDEGTWVQVSLLHFVPTREANGHRLGCQAAFPNTTLQFEGYASLDVKYPPVIVEMNSSVEAIEGSHVSLLCGADSNPPPLLTWMRDGMVLREAVAKSLYLDLEEVTPGEDGVYACLAENAYGQDNRTVELSVMYAPWKPTVNGTVVAVEGETVSILCSTQSNPDPILTIFKEKQILATVIYESQLQLELPAVTPEDDGEYWCVAENQYGQRATAFNLSVKFAPIILLESHCAAARDTVQCLCVVKSNPEPSVAFELPSRNVTVNETEREFVYSERSGLLLTSILTIRGQAQAPPRVICTSRNLYGTQSLELPFQGAHRLMWAKIGP |  | inhibited neurite outgrowth as effectively as MAG-Fc
